The source of these data is ChEMBL document CHEMBL1649101, “Desmethyl Macrolide Analogues to Address Antibiotic Resistance: Total Synthesis and Biological Evaluation of 4,8,10-Tridesmethyl Telithromycin” (2011).

Holding throughout (assay type): functional
Test [1] relates to Escherichia coli. Briefly: Antibacterial activity against Escherichia coli DK/2058G harboring ribosomal A2058G mutant.
Test [2] deals with Escherichia coli. As to the kind of experiment: Antibacterial activity against Escherichia coli SQ171/2058G harboring ribosomal A2058G mutant.
The test system of test [3] is Escherichia coli. Briefly: Antibacterial activity against wild type Escherichia coli DK/pKK3535.
In test [4] the test system is Staphylococcus aureus. As to the kind of experiment: Antibacterial activity against Staphylococcus aureus ATCC 33591 harboring ermA mutant.
For test [5], the system named is Staphylococcus aureus. As to the kind of experiment: Antibacterial activity against Staphylococcus aureus UCN14 harboring ribosomal […] mutant.

The structures appear in SMILES notation. In brackets after ≈: the same amount, converted by molar mass.

For orientation: MIC means the lowest concentration found to suppress growth. A lower MIC goes with greater potency. Consider `CC[C@H]1OC(=O)[C@H](C)C(=O)[C@H](C)[C@@H](O[C@@H]2O[C@H](C)C[C@H](N(C)C)[C@H]2O)[C@](C)(OC)C[C@@H](C)C(=O)[C@H](C)[C@H]2N(CCCCn3cnc(-c4cccnc4)c3)C(=O)O[C@]12C` [TELITHROMYCIN], for which the MIC in test [1] was 1 mg/L (≈ 1.23 µM); in test [2], greater than 512 mg/L; in test [3], 0.5 mg/L (≈ 0.616 µM); in test [4], greater than 128 mg/L; in test [5], greater than 256 mg/L.

For `CC[C@H]1OC(=O)[C@H](C)C(=O)C[C@@H](O[C@@H]2O[C@H](C)C[C@H](N(C)C)[C@H]2O)[C@@](C)(OC)CCC(=O)C[C@@H]2N(CCCCn3cnc(-c4cccnc4)c3)C(=O)O[C@@]21C`, the minimum inhibitory concentration (MIC) in test [3] was found to be 32 mg/L (≈ 41.6 µM).
